Measured values reported in patent US5739284A, “Compositions corresponding to a high-affinity glutamate transporter molecule and methods for making and using same” (Brigham and Women's Hospital, Inc., priority 1995, dated 1998).
Like-named read-outs stand apart in the source and are kept apart here.

How the values were obtained:
[1] = target: T1, rabbit derived excitatory amino acid carrier (Oryctolagus cuniculus, UniProt P31597); test: inhibition of current evoked by L-glutamate in oocytes expressing rabbit EAAC1; type: cell-based
T1 construct: ID No. 4; expressed in transfected cells; host or cells: Xenopus laevis oocytes injected with cRNA (25 ng/oocyte)
T1 sequence (P31597 1-524): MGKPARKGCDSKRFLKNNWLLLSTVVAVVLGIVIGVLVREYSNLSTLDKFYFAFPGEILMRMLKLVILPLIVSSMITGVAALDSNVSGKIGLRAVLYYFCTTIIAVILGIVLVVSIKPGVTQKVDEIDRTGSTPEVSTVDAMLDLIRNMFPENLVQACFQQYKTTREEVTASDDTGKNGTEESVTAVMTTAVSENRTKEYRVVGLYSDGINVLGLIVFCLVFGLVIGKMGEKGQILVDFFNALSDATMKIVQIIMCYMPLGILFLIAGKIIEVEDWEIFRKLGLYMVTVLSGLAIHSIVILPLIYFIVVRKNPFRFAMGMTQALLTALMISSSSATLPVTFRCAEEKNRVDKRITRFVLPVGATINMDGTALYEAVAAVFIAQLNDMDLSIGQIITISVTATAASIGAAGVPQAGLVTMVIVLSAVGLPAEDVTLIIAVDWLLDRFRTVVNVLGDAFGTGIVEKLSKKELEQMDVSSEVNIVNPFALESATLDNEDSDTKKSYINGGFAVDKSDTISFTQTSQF
Description: Xenopus laevis oocytes were injected with cRNA (25 ng/oocyte) encoding for the excitatory amino acid carrier protein derived from rabbit as described in Example 1. Electrophysiological measurements were performed 3-4 days after injection using a conventional two-microelectrode voltage clamp method (Axoclamp-2A, Axon Instruments, CA).
The standard bath solution (ND 96) contained 96 mM NaCl, 2 mM KCl, 1.8 mM CaCl2, 1.0 mM MgCl2 and 5 mM HEPES pH 7.4 The recording chamber was perfused with bath solution. Current responses of Xenopus laevis oocytes injected with cRNA coding for the excitatory amino acid carrier protein and fragments thereof to bath applied 100 μM substrates are illustrated in FIG. 7.
Example 7 illustrates the application of the electrophysiological features of the excitatory amino acid carrier protein, derived from rabbit, described in Example 6 in the screening of drugs to enhance or inhibit the protein. The Xenopus laevis oocytes was injected with rabbit derived excitatory amino acid carrier cRNA and processed as described in Example 6. […] Robinson, M. B., Hunter-Ensor, M. & Sinor, J., "Pharmacologically distinct sodium-dependentL-[3H]glutamate transport process in rat brain," Brain Research 544:196-202 (1991).

[2] = target: T2, Human High Affinity Glutamate Transporter HEAAC1 (Homo sapiens, UniProt P43005); test: inhibition of L-glutamate-evoked currents in oocytes expressing human carrier; type: cell-based; parameters: expressed in transfected cells; host or cells: Xenopus laevis oocytes (cRNA injection; human kidney clone K-3); conditions: for Ki / IC50: HEAAC1; for Ki: based on the kinetics for competitive inhibition; for order of sensitivity to inhibitors based on IC50 values: current induced by 100 μM L-glutamate; for inhibition of the current induced by L-glutamate: L-glutamate 10-1,000 μM, DHK 1 mM
T2 sequence (P43005 1-524 V96L/K170N/P172A/L260H): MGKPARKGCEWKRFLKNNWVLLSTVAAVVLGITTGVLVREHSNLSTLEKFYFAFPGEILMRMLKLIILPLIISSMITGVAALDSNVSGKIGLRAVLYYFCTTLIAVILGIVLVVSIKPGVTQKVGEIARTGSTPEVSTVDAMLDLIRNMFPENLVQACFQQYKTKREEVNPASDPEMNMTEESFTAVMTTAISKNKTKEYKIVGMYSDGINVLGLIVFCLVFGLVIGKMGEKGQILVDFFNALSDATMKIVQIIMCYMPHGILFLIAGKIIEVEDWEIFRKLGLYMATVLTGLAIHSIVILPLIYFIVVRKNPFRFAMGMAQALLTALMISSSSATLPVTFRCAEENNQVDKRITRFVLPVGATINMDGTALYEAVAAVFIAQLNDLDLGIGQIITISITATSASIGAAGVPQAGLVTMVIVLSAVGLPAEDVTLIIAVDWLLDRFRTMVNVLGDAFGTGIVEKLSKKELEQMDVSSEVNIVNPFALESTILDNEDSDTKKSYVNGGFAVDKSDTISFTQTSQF
Description: (§1) The glutamate evoked currents were first measured without addition of inhibitor. […] Calculation of KI values was based on the kinetics for competitive inhibition.

[3] = target: T3, excitatory amino acid carrier protein (EAAC1) derived from rabbit (Oryctolagus cuniculus, UniProt P31597); test: substrate-evoked currents (two-microelectrode voltage clamp) in oocytes expressing rabbit EAAC1; conditions: 100 μM substrate, -60 mV holding potential, FIG. 7
T3 sequence (P31597 1-524): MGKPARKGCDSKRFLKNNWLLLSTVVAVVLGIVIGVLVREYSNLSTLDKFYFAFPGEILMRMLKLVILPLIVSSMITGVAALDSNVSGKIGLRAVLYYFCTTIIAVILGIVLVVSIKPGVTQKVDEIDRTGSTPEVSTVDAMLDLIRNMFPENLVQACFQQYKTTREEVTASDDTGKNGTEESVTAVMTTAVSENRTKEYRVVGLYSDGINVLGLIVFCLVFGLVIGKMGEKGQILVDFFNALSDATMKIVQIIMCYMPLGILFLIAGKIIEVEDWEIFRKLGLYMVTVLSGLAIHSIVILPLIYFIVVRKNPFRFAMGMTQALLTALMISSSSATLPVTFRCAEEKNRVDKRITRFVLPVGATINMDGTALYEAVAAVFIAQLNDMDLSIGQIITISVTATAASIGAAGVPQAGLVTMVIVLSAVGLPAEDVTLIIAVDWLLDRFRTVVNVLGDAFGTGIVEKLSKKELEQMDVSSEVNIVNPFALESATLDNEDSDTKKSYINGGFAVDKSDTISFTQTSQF
Description: (§2) The membrane current was measured in standard bath solution (ND 96) at -60 mV holding potential. Substrates were applied at the bars.
(§3) FIG. 9 graphically depicts the changes in glutamate induced current measured in nanoampere (nA) at concentrations ranging from 1 μM to 1 mM glutamate. The results were fitted to a Michaelis-Menton curve. An Eadie-Hofstee plot is depicted in the inset.
(§4) Xenopus laevis oocytes were injected with excitatory amino acid carrier cRNA derived from rabbit (25 ng/oocyte) and used for two microelectrode voltage clamp experiments. Recordings were performed at -60 mV in regular ND 96 saline (96 mM NaCl, 2 mM KCl, 1.8 mM CaCl2, 1.0 mM MgCl2 and 5 mM Hepes pH 7.4).

[4] = target: T2, Human High Affinity Glutamate Transporter HEAAC1; test: substrate-evoked currents in oocytes expressing human carrier; conditions: for inward currents induced: AAD at 50 μM, DHK up to 1 mM
Description: as §1
Oocytes were used for two-microelectrode voltage-clamping as described above and command potentials were applied and controlled by an IBM-compatible computer via the software CLAMPEX from pCLAMP (version 5.5 Axon Instruments, CA). The oocyte membrane was held at -50 mV and pulsed to the test potential for […] followed by a 1 sec interpulse interval at the holding potential of -50 mV before application of the next pulse. Current was low-pass filtered at […], digitized at 200 μsec and saver on the computer. Steady-state currents were obtained by averaging the current between 72 and 76 msec.

[5] = system: synaptosomal L-glutamate uptake; conditions: Robinson et al. / previously known; cited from earlier work
[6] = target: T4, human excitatory amino acid carrier (Homo sapiens, UniProt P43005); test: voltage dependence of currents mediated by human carrier; type: cell-based
T4 sequence (P43005 1-524): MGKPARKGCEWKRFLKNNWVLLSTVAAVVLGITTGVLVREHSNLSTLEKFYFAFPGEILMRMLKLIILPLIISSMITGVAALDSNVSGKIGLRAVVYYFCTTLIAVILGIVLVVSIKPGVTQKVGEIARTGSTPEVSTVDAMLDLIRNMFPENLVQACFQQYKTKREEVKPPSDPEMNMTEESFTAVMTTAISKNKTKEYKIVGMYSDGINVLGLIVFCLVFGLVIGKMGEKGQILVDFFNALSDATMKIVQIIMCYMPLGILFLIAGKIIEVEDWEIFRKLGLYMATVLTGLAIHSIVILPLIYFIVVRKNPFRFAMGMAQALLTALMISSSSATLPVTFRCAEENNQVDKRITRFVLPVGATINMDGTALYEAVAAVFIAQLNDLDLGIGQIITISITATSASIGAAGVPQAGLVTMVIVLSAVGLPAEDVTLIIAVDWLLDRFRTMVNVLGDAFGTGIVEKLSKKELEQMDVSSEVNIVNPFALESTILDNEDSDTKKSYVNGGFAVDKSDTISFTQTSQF
Description: (§5) Oocytes were used for two-microelectrode voltage-clamping as described above and command potentials were applied and controlled by an IBM-compatible computer via the software CLAMPEX from pCLAMP (version 5.5 Axon Instruments, CA). The oocyte membrane was held at -50 mV and pulsed to the test potential for msec followed by a 1 sec interpulse interval at the holding potential of -50 mV before application of the next pulse. Current was low-pass filtered at 50 kHz, digitized at 200 μsec and saver on the computer. Steady-state currents were obtained by averaging the current between 72 and 76 msec.

[7] = substrate: N[C@@H](CC(=O)O)C(=O)O; test: cells, lysate or membranes; conditions: other: EAAC1, rabbit derived; pH 7.4
Description: as §2, §3, §4

[8] = substrate: N[C@@H](CCC(=O)O)C(=O)O; test: cells, lysate or membranes; conditions: pH 7.4
[9] = substrate: N[C@H](CC(=O)O)C(=O)O; test: cells, lysate or membranes; conditions: other: EAAC1, rabbit derived; pH 7.4
Description: as §2, §3, §4

[10] = substrate: N[C@@H](CCCC(=O)O)C(=O)O; test: cells, lysate or membranes; conditions: other: HEAAC1, human
[11] = substrate: N[C@H](C(=O)O)[C@H](O)C(=O)O; test: cells, lysate or membranes; conditions: other: HEAAC1, human
Description: as §5

[12] = substrate: O=C(O)[C@H]1CN[C@H](C(=O)O)C1; test: cells, lysate or membranes; conditions: other: HEAAC1, human
Description: as §5

[13] = IC50, L-Glu = 100 um, L-Glu = 100 um

Molecule: N[C@@H](CCCC(=O)O)C(=O)O [AAD, L-α-aminoadipate]
- IC50 [1]: 0.165 mM
- Ki [2]: ~20 µM
- order of sensitivity to inhibitors based on IC50 values [2]: THA>PDC>>AAA>DHK

Molecule: C=C(C)[C@H]1CN[C@H](C(=O)O)[C@H]1CC(=O)O [kainate]
- amplitude of inward current evoked by substrate [3]: did not induce current

Molecule: N[C@@H](Cn1oc(=O)[nH]c1=O)C(=O)O [Quisgualate, quisgualate]
- amplitude of inward current evoked by substrate [3]: small but significant inward current

Molecule: CC(C)[C@H]1CN[C@H](C(=O)O)[C@H]1CC(=O)O [DHK, dihydrokainate]
- IC50 ([1]; rabbit EAAC1, value in mM, read-out: IC50, inhibition of glutamate induced inward currents): > 1 mM
- inward currents induced [4]: did not induce significant currents
- inhibition of synaptosomal L-glutamate uptake [5]: less effective inhibitors
- inhibition of the current induced by L-glutamate [2]: did not inhibit the current efficiently
- order of sensitivity to inhibitors based on IC50 values [2]: THA>PDC>>AAA>DHK
- inhibition at 1000 µM ([2]; read-out: inhibition at 1 mM DHK (IC50)): 6.7%

Molecule: N[C@@H](CCC(=O)O)C(=O)O [L-glutamate]
- voltage dependence of Km for L-glutamate [6]: strongly depended on membrane voltage

Molecule: N[C@H](C(=O)O)[C@H](O)C(=O)O (relative stereo) [THA, DL-threo-β-hydroxyaspartate]
- IC50 [1]: 0.0071 mM
- substrate of the carrier / effect on transport [4]: transport substrates
- inward currents induced [4]: large inward currents
- inhibition of synaptosomal L-glutamate uptake [5]: strong inhibitor
- IC50 [2, 13]: 28 ± 0.8 µM
- inhibition of the current induced by L-glutamate [2]: potent inhibitors
- order of sensitivity to inhibitors based on IC50 values [2]: THA>PDC>>AAA>DHK

Molecule: O=C(O)[C@H]1CN[C@H](C(=O)O)C1 [PDC, L-trans-pyrolidine-2,4-dicarboxylate]
- substrate of the carrier / effect on transport [4]: transport substrates
- inward currents induced [4]: large inward currents
- Vmax for the PDC-induced current [6]: markedly reduced
- overall voltage-dependencies of L-glutamate and PDC evoked currents [6]: identical
- Ki [2]: ~1 µM
- IC50 ([2]; IC50, L-Glu = 1 mM, L-Glu = 1 mM): 91 ± 7.2 µM
- IC50 [2, 13]: 74 ± 11 µM
- inhibition of the current induced by L-glutamate [2]: potent inhibitors
- order of sensitivity to inhibitors based on IC50 values [2]: THA>PDC>>AAA>DHK
- maximal transport rate (Vmax) of glutamate uptake ([2]; human carrier): reduces the maximal transport rate (Vmax)
- preference as uptake inhibitor ([2]; human carrier): preferred uptake inhibitor

B1: excitatory amino acid carrier protein (EAAC1) derived from rabbit (Oryctolagus cuniculus) (protein)
chain: MGKPARKGCDSKRFLKNNWLLLSTVVAVVLGIVIGVLVREYSNLSTLDKFYFAFPGEILMRMLKLVILPLIVSSMITGVAALDSNVSGKIGLRAVLYYFCTTIIAVILGIVLVVSIKPGVTQKVDEIDRTGSTPEVSTVDAMLDLIRNMFPENLVQACFQQYKTTREEVTASDDTGKNGTEESVTAVMTTAVSENRTKEYRVVGLYSDGINVLGLIVFCLVFGLVIGKMGEKGQILVDFFNALSDATMKIVQIIMCYMPLGILFLIAGKIIEVEDWEIFRKLGLYMVTVLSGLAIHSIVILPLIYFIVVRKNPFRFAMGMTQALLTALMISSSSATLPVTFRCAEEKNRVDKRITRFVLPVGATINMDGTALYEAVAAVFIAQLNDMDLSIGQIITISVTATAASIGAAGVPQAGLVTMVIVLSAVGLPAEDVTLIIAVDWLLDRFRTVVNVLGDAFGTGIVEKLSKKELEQMDVSSEVNIVNPFALESATLDNEDSDTKKSYINGGFAVDKSDTISFTQTSQF
- Km [7]: 6.5 µM
- Km ([8]; other: EAAC1, rabbit derived): 12.1 µM
- Km ([8]; other: glutamate-induced current, rabbit EAAC1 in oocytes): 12.2 µM
- Km [9]: 7.5 µM

B2: Human High Affinity Glutamate Transporter HEAAC1 (Homo sapiens) (protein)
chain: MGKPARKGCEWKRFLKNNWVLLSTVAAVVLGITTGVLVREHSNLSTLEKFYFAFPGEILMRMLKLIILPLIISSMITGVAALDSNVSGKIGLRAVLYYFCTTLIAVILGIVLVVSIKPGVTQKVGEIARTGSTPEVSTVDAMLDLIRNMFPENLVQACFQQYKTKREEVNPASDPEMNMTEESFTAVMTTAISKNKTKEYKIVGMYSDGINVLGLIVFCLVFGLVIGKMGEKGQILVDFFNALSDATMKIVQIIMCYMPHGILFLIAGKIIEVEDWEIFRKLGLYMATVLTGLAIHSIVILPLIYFIVVRKNPFRFAMGMAQALLTALMISSSSATLPVTFRCAEENNQVDKRITRFVLPVGATINMDGTALYEAVAAVFIAQLNDLDLGIGQIITISITATSASIGAAGVPQAGLVTMVIVLSAVGLPAEDVTLIIAVDWLLDRFRTMVNVLGDAFGTGIVEKLSKKELEQMDVSSEVNIVNPFALESTILDNEDSDTKKSYVNGGFAVDKSDTISFTQTSQF
- Km [10]: 2400 ± 0.6 µM
- Km [11]: 34 ± 6.4 µM
- Km [12]: 23 ± 3.7 µM
